Measurements reported in the NIST ThermoML archive (doi:10.1021/je034102r).
Numbers after ± are expanded uncertainties.

Experiment: Molar enthalpy of transition or fusion
Details: Crystal

In the case of CCCCn1cc[n+](C)c1.F[P-](F)(F)(F)(F)F [1-butyl-3-methylimidazolium hexafluorophosphate], the “Molar enthalpy of transition or fusion” value is reported as 4.685 ± 0.01 kcal/mol.
